Test results from article PMC5218480 (PLoS ONE, 2017).

Test system: MV-4-11 cells
Test: Gene expression microarray analysis (Affymetrix PrimeView) and GSEA
Format: cell-based, human
Set-up: RFU PODN (11730768_x_at) / Fold change /veh PODN (11730768_x_at) / RFU LINC00158 (11744669_a_at) / Fold change /veh LINC00158 (11744669_a_at) / RFU DUSP10 (11751237_a_at) / Fold change /veh DUSP10 (11751237_a_at) / RFU ID3 (11757404_x_at) / Fold change /veh ID3 (11757404_x_at) / RFU PLEKHG5 (11737974_s_at) / Fold change /veh PLEKHG5 (11737974_s_at) / RFU LRRC4B (11730491_at) / Fold change /veh LRRC4B (11730491_at) / RFU GIMAP4 (11747438_a_at) / Fold change /veh GIMAP4 (11747438_a_at) / RFU KRT8 (11758183_x_at) / Fold change /veh KRT8 (11758183_x_at) / RFU CNN1 (11734310_a_at) / Fold change /veh CNN1 (11734310_a_at) / RFU VPS37D (11726825_at) / Fold change /veh VPS37D (11726825_at) / RFU C10orf10 (11716522_x_at) / Fold change /veh C10orf10 (11716522_x_at) / RFU KIR2DL2 /// KIR2DL4 /// KIR2DL5A /// KIR2DL5B /// KIR2DS1 /// KIR2DS2 /// KIR2DS3 /// KIR2DS4 /// KIR3DL3 /// KIR3DL3 /// KIR3DS1 (11738374_at) / Fold change /veh KIR2DL2 /// KIR2DL4 /// KIR2DL5A /// KIR2DL5B /// KIR2DS1 /// KIR2DS2 /// KIR2DS3 /// KIR2DS4 /// KIR3DL3 /// KIR3DL3 /// KIR3DS1 (11738374_at) / RFU C1QL1 (11718748_at) / Fold change /veh C1QL1 (11718748_at) / RFU TMPRSS4 (11747572_a_at) / Fold change /veh TMPRSS4 (11747572_a_at) / RFU HAMP (11756126_x_at) / Fold change /veh HAMP (11756126_x_at) / RFU RNFT2 (11725882_a_at) / Fold change /veh RNFT2 (11725882_a_at) / RFU NR4A2 (11747474_a_at) / Fold change /veh NR4A2 (11747474_a_at) / RFU ABCC12 (11746883_a_at) / Fold change /veh ABCC12 (11746883_a_at) / RFU TMEM136 (11760407_x_at) / Fold change /veh TMEM136 (11760407_x_at) / RFU CLDN22 /// WWC2 (11732394_at) / Fold change /veh CLDN22 /// WWC2 (11732394_at) / RFU HLA-DPB1 (11760878_x_at) / Fold change /veh HLA-DPB1 (11760878_x_at) / RFU SPINT1 (11716480_a_at) / Fold change /veh SPINT1 (11716480_a_at) / RFU GAP43 (11754022_s_at) / Fold change /veh GAP43 (11754022_s_at) / RFU A4GNT (11735810_at) / Fold change /veh A4GNT (11735810_at) / RFU PRB3 (11715151_x_at) / Fold change /veh PRB3 (11715151_x_at) / RFU TUBB4B (11761932_at) / Fold change /veh TUBB4B (11761932_at) / RFU CAPN14 (11732068_a_at) / Fold change /veh CAPN14 (11732068_a_at) / RFU TMCC2 (11721928_a_at) / Fold change /veh TMCC2 (11721928_a_at) / RFU IRGQ (11745062_a_at) / Fold change /veh IRGQ (11745062_a_at) / RFU FAM174B (11720279_a_at) / Fold change /veh FAM174B (11720279_a_at) / RFU TMPRSS4 (11748680_a_at) / Fold change /veh TMPRSS4 (11748680_a_at) / RFU FAM212B (11763350_a_at) / Fold change /veh FAM212B (11763350_a_at) / RFU PLEKHG5 (11743358_a_at) / Fold change /veh PLEKHG5 (11743358_a_at) / RFU ZSCAN30 (11745921_a_at) / Fold change /veh ZSCAN30 (11745921_a_at) / RFU CMKLR1 (11741424_a_at) / Fold change /veh CMKLR1 (11741424_a_at) / RFU LOC101060620 /// MAPK8IP1 (11723275_at) / Fold change /veh LOC101060620 /// MAPK8IP1 (11723275_at) / RFU SPTSSB (11747773_x_at) / Fold change /veh SPTSSB (11747773_x_at) / RFU PRSS12 (11739890_at) / Fold change /veh PRSS12 (11739890_at) / RFU BIN1 (11741810_x_at) / Fold change /veh BIN1 (11741810_x_at) / RFU WNT11 (11732464_a_at) / Fold change /veh WNT11 (11732464_a_at) / RFU C10orf10 (11716521_a_at) / Fold change /veh C10orf10 (11716521_a_at) / RFU C5orf56 (11738089_at) / Fold change /veh C5orf56 (11738089_at) / RFU CYB561 (11721691_x_at) / Fold change /veh CYB561 (11721691_x_at) / RFU ANKRD19P (11752326_a_at) / Fold change /veh ANKRD19P (11752326_a_at) / RFU OR2T12 /// OR2T33 /// OR2T8 (11738714_s_at) / Fold change /veh OR2T12 /// OR2T33 /// OR2T8 (11738714_s_at) / RFU VCAN (11748164_a_at) / Fold change /veh VCAN (11748164_a_at) / RFU JSRP1 (11732532_at) / Fold change /veh JSRP1 (11732532_at) / RFU KRTAP10-11 (11738290_x_at) / Fold change /veh KRTAP10-11 (11738290_x_at) / RFU MYO3A (11730013_a_at) / Fold change /veh MYO3A (11730013_a_at) / RFU EBF3 (11725865_a_at) / Fold change /veh EBF3 (11725865_a_at) / RFU CAMK2N1 (11719241_x_at) / Fold change /veh CAMK2N1 (11719241_x_at) / RFU C5orf56 (11738088_a_at) / Fold change /veh C5orf56 (11738088_a_at) / RFU OLFML3 (11715873_a_at) / Fold change /veh OLFML3 (11715873_a_at) / RFU LOC100653217 /// NTM (11731650_a_at) / Fold change /veh LOC100653217 /// NTM (11731650_a_at) / RFU MAPK11 (11762145_a_at) / Fold change /veh MAPK11 (11762145_a_at) / RFU FIZ1 (11724087_x_at) / Fold change /veh FIZ1 (11724087_x_at) / RFU OASL (11726364_x_at) / Fold change /veh OASL (11726364_x_at) / RFU SOX15 (11748057_x_at) / Fold change /veh SOX15 (11748057_x_at) / RFU CD79A (11719716_a_at) / Fold change /veh CD79A (11719716_a_at) / RFU HIST1H1D (11736915_at) / Fold change /veh HIST1H1D (11736915_at) / RFU CASKIN2 (11723855_a_at) / Fold change /veh CASKIN2 (11723855_a_at) / RFU LOC730098 (11760151_x_at) / Fold change /veh LOC730098 (11760151_x_at) / RFU OR4N2 (11742367_at) / Fold change /veh OR4N2 (11742367_at) / RFU PRRT2 (11749266_a_at) / Fold change /veh PRRT2 (11749266_a_at) / RFU SNX32 (11753110_a_at) / Fold change /veh SNX32 (11753110_a_at) / RFU CDHR5 (11726645_a_at) / Fold change /veh CDHR5 (11726645_a_at) / RFU RCAN1 (11760418_a_at) / Fold change /veh RCAN1 (11760418_a_at) / RFU FAM167A (11723789_a_at) / Fold change /veh FAM167A (11723789_a_at) / RFU FAM26E (11764081_at) / Fold change /veh FAM26E (11764081_at) / RFU ISYNA1 (11749810_s_at) / Fold change /veh ISYNA1 (11749810_s_at) / RFU ACY1 (11761880_at) / Fold change /veh ACY1 (11761880_at) / RFU 11764098_at / Fold change /veh 11764098_at / RFU SAMD14 (11745864_x_at) / Fold change /veh SAMD14 (11745864_x_at) / RFU NPB (11741838_a_at) / Fold change /veh NPB (11741838_a_at) / RFU TMPRSS6 (11731388_a_at) / Fold change /veh TMPRSS6 (11731388_a_at) / RFU KRTAP10-2 (11738614_at) / Fold change /veh KRTAP10-2 (11738614_at) / RFU ARHGAP8 /// PRR5-ARHGAP8 (11727945_x_at) / Fold change /veh ARHGAP8 /// PRR5-ARHGAP8 (11727945_x_at) / RFU KRTAP5-7 /// NADSYN1 (11734609_at) / Fold change /veh KRTAP5-7 /// NADSYN1 (11734609_at) / RFU RASL12 (11751679_a_at) / Fold change /veh RASL12 (11751679_a_at) / RFU CDKN2B (11736163_a_at) / Fold change /veh CDKN2B (11736163_a_at) / RFU PRF1 (11729649_at) / Fold change /veh PRF1 (11729649_at) / RFU, ZNF638 /// ZNF638-IT1 / Fold change vs veh, ZNF638 /// ZNF638-IT1 / RFU, PANK3 / Fold change vs veh, PANK3 / RFU, SH3YL1 / Fold change vs veh, SH3YL1 / RFU, ZEB2 / Fold change vs veh, ZEB2 / RFU, NRIP1 / Fold change vs veh, NRIP1 / RFU, PTTG1IP / Fold change vs veh, PTTG1IP / RFU, CAPN2 / Fold change vs veh, CAPN2 / RFU, MED14 / Fold change vs veh, MED14 / RFU, SNORA58 / Fold change vs veh, SNORA58 / RFU, C1orf63 / Fold change vs veh, C1orf63 / RFU, LRRFIP1 / Fold change vs veh, LRRFIP1 / RFU, NDUFAF7 / Fold change vs veh, NDUFAF7 / RFU, SLC12A2 / Fold change vs veh, SLC12A2 / RFU, IBTK / Fold change vs veh, IBTK / RFU, ESF1 / Fold change vs veh, ESF1 / Fold change vs veh, TMEM50B / RFU, TAOK1 / Fold change vs veh, TAOK1 / RFU, ACBD3 / Fold change vs veh, ACBD3 / RFU, TMA16 / Fold change vs veh, TMA16 / RFU, RWDD3 / Fold change vs veh, RWDD3 / RFU, BCAT1 / Fold change vs veh, BCAT1 / RFU, EDEM3 / Fold change vs veh, EDEM3 / RFU, TMEM33 / Fold change vs veh, TMEM33 / RFU, WDR75 / Fold change vs veh, WDR75 / RFU, AHCTF1 / Fold change vs veh, AHCTF1 / RFU, TFRC / Fold change vs veh, TFRC / RFU, ZDHHC17 / Fold change vs veh, ZDHHC17 / RFU, NOM1 / Fold change vs veh, NOM1 / RFU, ARL8B / Fold change vs veh, ARL8B / RFU, ZBTB11 / Fold change vs veh, ZBTB11 / RFU, TAMM41 / Fold change vs veh, TAMM41 / RFU, KIAA1704 /// LOC100996395 / Fold change vs veh, KIAA1704 /// LOC100996395 / RFU, ING1 / Fold change vs veh, ING1 / RFU, TRMT61B / Fold change vs veh, TRMT61B / RFU, FUBP3 / Fold change vs veh, FUBP3 / RFU, TP53 / Fold change vs veh, TP53 / RFU, TNKS2 / Fold change vs veh, TNKS2 / RFU, ZFP14 / Fold change vs veh, ZFP14 / RFU, ACTR2 / Fold change vs veh, ACTR2 / RFU, PPP3R1 / Fold change vs veh, PPP3R1 / RFU, PIK3R1 / Fold change vs veh, PIK3R1 / RFU, HNRNPA1 / Fold change vs veh, HNRNPA1 / RFU, RNF170 / Fold change vs veh, RNF170 / RFU, ZNF28 / Fold change vs veh, ZNF28 / RFU, RNGTT / Fold change vs veh, RNGTT / RFU, OGT / Fold change vs veh, OGT / RFU, BRD1 / Fold change vs veh, BRD1 / RFU, MARS / Fold change vs veh, MARS / RFU, ZNF655 / Fold change vs veh, ZNF655 / RFU, FAHD1 / Fold change vs veh, FAHD1 / RFU, BDP1 / Fold change vs veh, BDP1 / RFU, LRRCC1 / Fold change vs veh, LRRCC1 / RFU, ARID1A / Fold change vs veh, ARID1A / RFU, ZNF146 / Fold change vs veh, ZNF146 / RFU, ZNF330 / Fold change vs veh, ZNF330 / RFU, GPN3 / Fold change vs veh, GPN3 / RFU, C9orf123 / Fold change vs veh, C9orf123 / RFU, N4BP2L2 / Fold change vs veh, N4BP2L2 / RFU, ARFIP1 / Fold change vs veh, ARFIP1 / RFU, FAM179B / Fold change vs veh, FAM179B / RFU, BCL10 / Fold change vs veh, BCL10 / RFU, UHRF1BP1L / Fold change vs veh, UHRF1BP1L / RFU, BET1 / Fold change vs veh, BET1 / RFU, CNOT2 / Fold change vs veh, CNOT2 / RFU, ZNF268 / Fold change vs veh, ZNF268 / Fold change vs veh, ZNF507 / RFU, DGCR2 / Fold change vs veh, DGCR2 / RFU, WDSUB1 / Fold change vs veh, WDSUB1 / Fold change vs veh, HSP90B1 /// MIR3652 / RFU, ADSS / Fold change vs veh, ADSS / RFU, GK / Fold change vs veh, GK / RFU, ZNF148 / Fold change vs veh, ZNF148 / RFU, TAF9 / Fold change vs veh, TAF9 / RFU, SLC1A5 / Fold change vs veh, SLC1A5 / RFU, SLMO2 / Fold change vs veh, SLMO2 / RFU, ABCC4 / Fold change vs veh, ABCC4 / RFU, LOC101060439 /// RAP1B / Fold change vs veh, LOC101060439 /// RAP1B / RFU, RFX7 / Fold change vs veh, RFX7 / RFU, GTPBP10 / Fold change vs veh, GTPBP10 / RFU, CNEP1R1 / Fold change vs veh, CNEP1R1 / RFU, BIVM-ERCC5 /// ERCC5 / Fold change vs veh, BIVM-ERCC5 /// ERCC5 / RFU, ILF3 / Fold change vs veh, ILF3 / RFU 11762660_at / Fold change /veh 11762660_at / RFU VCAN (11757783_s_at) / Fold change /veh VCAN (11757783_s_at) / RFU DDX43 (11728927_at) / Fold change /veh DDX43 (11728927_at) / RFU KRT8 (11758188_x_at) / Fold change /veh KRT8 (11758188_x_at) / RFU NKD1 (11759106_at) / Fold change /veh NKD1 (11759106_at) / RFU SRD5A1 (11742802_a_at) / Fold change /veh SRD5A1 (11742802_a_at) / RFU TPSAB1 /// TPSB2 (11721975_s_at) / Fold change /veh TPSAB1 /// TPSB2 (11721975_s_at) / RFU GSTM3 (11746129_a_at) / Fold change /veh GSTM3 (11746129_a_at) / RFU IL23R (11737362_x_at) / Fold change /veh IL23R (11737362_x_at) / RFU TMEM51 (11727254_a_at) / Fold change /veh TMEM51 (11727254_a_at) / RFU PIWIL2 (11732686_x_at) / Fold change /veh PIWIL2 (11732686_x_at) / RFU ORM1 (11744905_x_at) / Fold change /veh ORM1 (11744905_x_at) / RFU CCDC152 (11743942_at) / Fold change /veh CCDC152 (11743942_at) / RFU ECM1 (11717891_a_at) / Fold change /veh ECM1 (11717891_a_at) / RFU IL23R (11748794_a_at) / Fold change /veh IL23R (11748794_a_at) / RFU TNFAIP8L3 (11732012_x_at) / Fold change /veh TNFAIP8L3 (11732012_x_at) / RFU MBOAT4 (11741988_at) / Fold change /veh MBOAT4 (11741988_at) / RFU 11764193_at / Fold change /veh 11764193_at / RFU TMEM53 (11763286_at) / Fold change /veh TMEM53 (11763286_at) / RFU MAGEB2 (11727129_at) / Fold change /veh MAGEB2 (11727129_at) / RFU TMEM200A (11744735_a_at) / Fold change /veh TMEM200A (11744735_a_at) / RFU CCDC152 (11751479_a_at) / Fold change /veh CCDC152 (11751479_a_at) / RFU FAM211A (11726209_a_at) / Fold change /veh FAM211A (11726209_a_at) / RFU RGS16 (11746705_a_at) / Fold change /veh RGS16 (11746705_a_at) / RFU VCAN (11755009_s_at) / Fold change /veh VCAN (11755009_s_at) / RFU RHOB (11743442_s_at) / Fold change /veh RHOB (11743442_s_at) / RFU RGS16 (11720943_a_at) / Fold change /veh RGS16 (11720943_a_at) / RFU RGS16 (11720944_at) / Fold change /veh RGS16 (11720944_at) / RFU, VPS4B / Fold change vs veh, VPS4B / RFU, CREB1 / Fold change vs veh, CREB1 / RFU, DNAJC13 / Fold change vs veh, DNAJC13 / RFU, GNAQ / Fold change vs veh, GNAQ / RFU, CDK5R1 / Fold change vs veh, CDK5R1 / RFU, ZRANB3 / Fold change vs veh, ZRANB3 / RFU, CUL4A / Fold change vs veh, CUL4A / RFU, CCNY / Fold change vs veh, CCNY / RFU, UFL1 / Fold change vs veh, UFL1 / RFU, COG3 / Fold change vs veh, COG3 / RFU, DIAPH2 / Fold change vs veh, DIAPH2 / RFU, SKA2 / Fold change vs veh, SKA2 / RFU, AFF3 / Fold change vs veh, AFF3 / RFU, LMF1 / Fold change vs veh, LMF1 / RFU, IPO11 / Fold change vs veh, IPO11 / RFU, DFFB / Fold change vs veh, DFFB / RFU, FOXP1 / Fold change vs veh, FOXP1 / RFU, CARD8 / Fold change vs veh, CARD8 / RFU, STRN3 / Fold change vs veh, STRN3 / RFU, ADK / Fold change vs veh, ADK / RFU, RASSF2 / Fold change vs veh, RASSF2 / RFU, WIPF1 / Fold change vs veh, WIPF1 / RFU, LARP1B / Fold change vs veh, LARP1B / RFU, RASA1 / Fold change vs veh, RASA1 / RFU, RB1 / Fold change vs veh, RB1 / RFU, PPFIA1 / Fold change vs veh, PPFIA1 / RFU, MAT2A / Fold change vs veh, MAT2A / RFU, CCT5 / Fold change vs veh, CCT5 / RFU, WDR92 / Fold change vs veh, WDR92 / RFU, CUX1 / Fold change vs veh, CUX1 / RFU, TTC7A / Fold change vs veh, TTC7A / RFU, TMEM135 / Fold change vs veh, TMEM135 / RFU, DEPTOR / Fold change vs veh, DEPTOR / RFU, CPM / Fold change vs veh, CPM / RFU, DNAJB6 / Fold change vs veh, DNAJB6 / RFU, CACNA2D3 / Fold change vs veh, CACNA2D3 / RFU, DTX4 / Fold change vs veh, DTX4 / RFU, TFCP2 / Fold change vs veh, TFCP2 / RFU, GMCL1 /// GMCL1P1 / Fold change vs veh, GMCL1 /// GMCL1P1 / RFU, AEBP2 / Fold change vs veh, AEBP2 / RFU, SNHG1 /// SNORD22 /// SNORD25 /// SNORD26 /// SNORD27 /// SNORD28 /// SNORD29 /// SNORD31 / Fold change vs veh, SNHG1 /// SNORD22 /// SNORD25 /// SNORD26 /// SNORD27 /// SNORD28 /// SNORD29 /// SNORD31 / Fold change (Aza/veh), C12orf56 (ProbeSet 11735607_a_at) / Fold change (ACY-1035/veh), C12orf56 (ProbeSet 11735607_a_at) / Fold change (Aza/veh), FGFR1OP (ProbeSet 11751329_s_at) / Fold change (ACY-1035/veh), FGFR1OP (ProbeSet 11751329_s_at) / Fold change (Aza/veh), VPS36 (ProbeSet 11739960_a_at) / Fold change (ACY-1035/veh), VPS36 (ProbeSet 11739960_a_at) / RFU SYPL1 (11715823_x_at) / Fold change /veh SYPL1 (11715823_x_at) / RFU IGFBP7 (11715501_s_at) / Fold change /veh IGFBP7 (11715501_s_at) / RFU REEP3 (11722064_at) / Fold change /veh REEP3 (11722064_at) / RFU IGLL1 (11728026_x_at) / Fold change /veh IGLL1 (11728026_x_at): dose or concentration left out as unconfirmed
Details: ProbeSet 11728271_at; LIST B

Nc1ccc(-c2cccs2)cc1NC(=O)c1ccc2c(c1)cc(C1CC1)n2CCN1CCOCC1 [ACY-1035]
Fold change vs veh, ZNF330: 0.88
